Counter-ions that a name gives are not always drawn.
System: anesthetized rabbits
Experiment: ST segment elevation by occlusion of the circumflex coronary artery in anesthetized rabbits (anti-ischemic activity, with blood pressure and heart rate)
Type: in vivo, rabbit
Conditions: for Heart rate / Mean blood pressure: 5 minutes after i.v. administration; for Heart rate / Mean blood pressure / effect on heart rate (in words): compound B 0.63 mg/kg; for effect on ST segment elevation (in words): i.v. slow bolus, compound A 0.04 mg/kg or compound B 0.63 mg/kg, 5 min before 5 min circumflex occlusion
Protocol: The anti-ischemic activity of 3-(R)-[3-(2-methoxyphenylthio)-2-(S)-methyl-propyl]amino-3,4-dihydro-2H-1,5-benzoxathiepine combined with ivabradine was evaluated in a model of ST segment elevation by occlusion of the circumflex coronary artery in anesthetized rabbits.
Male rabbits (2.2-2.5 kg) are anesthetized with pentobarbital. A catheter is placed in a carotid artery in order to continuously measure the animal's blood pressure. Blood samples are taken in order to regularly check blood gases and to modify ventilation parameters as needed. The compounds to be tested or the carriers are administered via a catheter placed in an ear vein. An electrocardiogram is recorded, also continuously, in configuration II in order to determine the variations of amplitude of the ST segment. The animal's thorax is opened and a ligature is placed around the left coronary artery (circumflex) in order to induce regional myocardial ischemia (Verscheure et al., 1995). After a period of stabilization of all hemodynamic parameters, the compounds are administered in a slow bolus (1 minute). Five minutes after the compounds are administered, the circumflex artery is occluded for 5 minutes and then the ligature is released. The heart is removed and the risk area (ligatured region of the circumflex artery) is evaluated. Four groups of rabbits are studied: • group receiving carrier: 40% polyethylene 300, 60% physiological saline; • group receiving 3-(R)-[3-(2-methoxyphenylthio)-2-(S)-methyl-propyl]amino-3,4-dihydro-2H-1,5-benzoxathiepine (compound A) at a dose of 0.04 mg/kg; • group receiving ivabradine hydrochloride (compound B) at a dose of 0.63 mg/kg; • group receiving compound A (0.04 mg/kg)+compound B (0.63 mg/kg).
The doses were selected in order to have submaximal pharmacological activities and thus to uncover potential additive or synergistic effects.

| SMILES | Heart rate (compound A 0.04 mg/kg) | Mean blood pressure (compound A 0.04 mg/kg) | effect on ST segment elevation (in words) | effect on blood pressure (in words) (i.v., compound A 0.04 mg/kg) | effect on heart rate (in words) (i.v., compound A 0.04 mg/kg) |
| --- | --- | --- | --- | --- | --- |
| COc1ccccc1SC[C@@H](C)CN[C@@H]1COc2ccccc2SC1 [Compound A, 3-(R)-[3-(2-methoxyphenylthio)-2-(S)-methyl-propyl]amino-3,4-dihydro-2H-1,5-benzoxathiepine] | 275 ± 10 bpm | 92 ± 4 mmHg | slight inhibition | without changing | without changing |
| COc1cc2c(cc1OC)CC(=O)N(CCCN(C)C[C@H]1Cc3cc(OC)c(OC)cc31)CC2 [Compound B, ivabradine hydrochloride, reference compound] | 211 ± 10 bpm | 92 ± 3 mmHg | lower ST segment elevation | – | relatively significant and constant bradycardia |
